Consider 4 compounds from article PMC8874615 (Viruses, 2022).

≈ marks a conversion by molar mass, not a printed value. Like-named read-outs stand apart in the source and are kept apart here.

Data set [1] relates to endosomal acidification in Vero cells. Nature of the data set: Analysis of endosomal acidification with acridine orange. The note with it: 20 min. In kind it is cell-based, African Green Monkey.
The test system of the next data set is ZIKV strain Paraiba_01. Kind of data set: Mechanistic plaque number assay, ZIKV in Vero cells. The settings on record: diphyllin 1 100 µM, bafilomycin A1 100 nM. Type of data set: cell-based, Zika virus.
A further data set concerns HSV-1 strain MacIntyre. Kind of data set: Mechanistic plaque number assay, HSV-1 in Vero cells. Type of data set: cell-based, herpes simplex virus type 1. The settings on record: diphyllin 1 100 µM, bafilomycin A1 100 nM.
Data set [2] is described as follows: Light sensitivity of the prepared sample. Type of data set: physicochemical. The settings on record: solid sample; surface coloration, detrimental to antivirus activities.
Data set [3] concerns TBEV, strain Hypr.
The subject of data set [4] is WNV, strain Eg-101.
In data set [5] the test system is ZIKV, strain Paraiba_01.
Data set [6] deals with RVFV, strain H13/96.
In data set [7] the test system is HSV-1, strain MacIntyre.
Data set [8] has as its system RABV, strain CVS-11.
Data set [9] deals with Mardin-Darby canine kidney cells (MDCK). The note with it: cited from earlier work.
Data set [10] concerns human lung carcinoma cells (A549). The note with it: cited from earlier work.
Data set [11] has as its system feline macrophage-like cells (fcwf-4). The settings on record: fcwf-4 cells; cited from earlier work.
In data set [12] the test system is rabbit lung cells (RL-33). The note with it: RL-33 cells; cited from earlier work.
For data set [13], the system named is TBEV, strain Hypr. Nature of the data set: microbe, parasite or virus in culture. The settings on record: Tick-borne encephalitis virus, Vero.
The subject of data set [14] is WNV, strain Eg-101. Kind of data set: microbe, parasite or virus in culture. The note with it: West Nile virus, Vero.
The test system of data set [15] is ZIKV, strain Paraiba_01. Kind of data set: microbe, parasite or virus in culture. The settings on record: Zika virus, Vero.
Data set [16] concerns RVFV, strain H13/96. Kind of data set: microbe, parasite or virus in culture. The note with it: Rift Valley fever virus, Vero.
The subject of data set [17] is HSV-1, strain MacIntyre. Nature of the data set: microbe, parasite or virus in culture. The note with it: Human alphaherpesvirus 1, Vero.
Data set [18] relates to RABV, strain CVS-11. Nature of the data set: microbe, parasite or virus in culture. The note with it: Lyssavirus rabies, BHK-21, 72 h.
Data set [19] can be described thus: Cytotoxicity assay (Cell Counting Kit-8) in PS cells. The note with it: pig, porcine kidney stable (PS) cells. (In general: Tetrazolium dyes change colour on reduction, which living cells bring about.)
A short description of data set [20]: Cytotoxicity assay (Cell Counting Kit-8) in Vero cells. The settings on record: African green monkey.
The nature of data set [21]: Cytotoxicity assay (Cell Counting Kit-8) in HBCA cells. The note with it: human, human brain cortical astrocytes (HBCA).
Data set [22] is described as follows: Cytotoxicity assay (Cell Counting Kit-8) in Huh-7 cells. The settings on record: human, Huh-7 hepatocarcinoma cells.
A short description of data set [23]: Cytotoxicity assay (Cell Counting Kit-8) in BHK-21 cells. The settings on record: hamster, BHK-21 cells (baby hamster kidney).
Data set [24] can be described thus: Cytotoxicity assay (Cell Counting Kit-8) in UKF-NB-4 cells. The note with it: human, UKF-NB-4 neuroblastoma cells.
The mark [25] stands for this setting: 3 h p.i. treatment then washing, plaques counted at 120 h.
The mark [26] stands for this setting: compound kept for the whole 120 h p.i.
The mark [27] stands for this setting: 3 h p.i. treatment then washing, plaques counted at 72 h.
Setting [28] is: compound kept for the whole 72 h p.i.

As for `COc1cc2c(O)c3c(c(-c4ccc5c(c4)OCO5)c2cc1OC)C(=O)OC3` [Diphyllin 1, 9-(3‣,4‣-methylenedioxyphenyl)-4-hydroxy-6,7-dimethoxynaphtho[2,3-c]furan-1(3H)-one], in data set [1] (100 µM, versus DMSO control), the “red fluorescence intensity of acidic endosomes (acridine orange)” value was “much reduced”. The “susceptibility of ZIKV (plaque number)” value with ZIKV strain Paraiba_01 (setting [25]) and in the data set with ZIKV strain Paraiba_01 (setting [26]) was “susceptible” in each case. Moreover, the “susceptibility of HSV-1 (plaque number)” value in the data set on HSV-1 strain MacIntyre (setting [27]) is “not susceptible”; in the data set on HSV-1 strain MacIntyre (setting [28]), “highly susceptible”. For the same compound, in [2], the light sensitivity entry is recorded as “rather light-sensitive”. Also, the “SI (CC50/EC50)” value is over 117.64 in the data set with TBEV, strain Hypr [3]; over 128.20 in the data set with WNV, strain Eg-101 [4]; over 185.19 with ZIKV, strain Paraiba_01 [5]; over 217.39 in the data set on RVFV, strain H13/96 [6]; over 169.49 in the data set with HSV-1, strain MacIntyre [7]; over 15.80 in the data set on RABV, strain CVS-11 [8]. Further, the “concentration at which complete HSV-1 suppression starts” value in the data set on HSV-1, strain MacIntyre [7] is on record as at least 2.5 µM. Moreover, the “drop in RABV RNA copies/µL compared with RABV-infected control cells” value in the data set on RABV, strain CVS-11 [8] is reported as 10^2. In addition, the CC50 (as a rule, the concentration giving 50% cytotoxicity) in data set [9] is 3.48 µM; in data set [10], 24 µM; in data set [11], 5.99 µM; in data set [12] it was 63 µg/mL (≈ 166 µM). Besides, the EC50 (in general, the concentration giving half of the maximal effect) in the data set with TBEV, strain Hypr [13] came to 0.85 µM; in the data set on TBEV, strain Hypr [13] (48 h), 1.04 µM; with WNV, strain Eg-101 [14], 0.78 µM; in the data set on ZIKV, strain Paraiba_01 [15], 0.54 µM; in the data set on RVFV, strain H13/96 [16], 0.46 µM; with HSV-1, strain MacIntyre [17] it was 0.59 µM. Further, the EC50 in the data set with RABV, strain CVS-11 [18] amounted to 6.33 µM. Besides, the CC50 at 48 h is 92.4 µM in data set [19]; over 100 µM in [20]; 3.39 µM in data set [21]; 1.89 µM in data set [22]; 11.1 µM in data set [24]. The CC50 at 72 h in data set [20] and in [23] was over 100 µM throughout. Also, the CC50 at 144 h in data set [20] was determined as 18.2 µM.
In turn, `COc1cc2c(O)c3c(c(-c4ccc5c(c4)OCO5)c2cc1OC)C(=O)OC3` [commercial product, diphyllin] gave an EC50 with TBEV, strain Hypr [3] of 1.24 µM.
Consider `CO/C1=C\C(C)=C\[C@@H](C)[C@@H](O)[C@@H](C)C/C(C)=C/C=C/[C@H](OC)[C@@H]([C@@H](C)[C@@H](O)[C@H](C)[C@@]2(O)C[C@@H](O)[C@H](C)[C@@H](C(C)C)O2)OC1=O` [bafilomycin A1, reference compound], for which the “red fluorescence intensity of acidic endosomes (acridine orange)” value in data set [1] (100 nM, positive control) is “all the more obvious”. Also, the “susceptibility of ZIKV (plaque number)” value with ZIKV strain Paraiba_01 (setting [25]) and in the data set with ZIKV strain Paraiba_01 (setting [26]) was “susceptible” throughout. Further, the “susceptibility of HSV-1 (plaque number)” value with HSV-1 strain MacIntyre (setting [27]) and with HSV-1 strain MacIntyre (setting [28]) was “not susceptible” in each case. The “effect on HSV-1 virus titers” value in the data set on HSV-1, strain MacIntyre [7] is “no effect”. Moreover, the EC50 is 0.00244 µM with ZIKV, strain Paraiba_01 [15] (48 h) and over 0.1 µM with HSV-1, strain MacIntyre [17] (48 h). Further, the viability (commonly the share of living cells, or the viability signal relative to a control) at 48 h, 0.15 µM in data set [20] was about 80%.
For `COc1cc2c(O[C@@H]3O[C@H](CO)[C@@H](O)[C@H](O)[C@H]3O)c3c(c(-c4ccc5c(c4)OCO5)c2cc1OC)C(=O)OC3` [Cleistanthin B 8, diphyllin-4-β-D-glucopyranoside, reference compound], in the data set with TBEV, strain Hypr [3], the “SI (CC50/EC50)” value is over 18.08. Also, the 50% effective concentration (EC50) in the data set with TBEV, strain Hypr [13] was determined as 5.53 µM. Besides, the CC50 at 48 h was 78.9 µM in data set [19]; over 100 µM in data set [20]; 2.08 µM in data set [21]; 3.96 µM in data set [22]; 6.17 µM in [24]. Further, in data set [20], the CC50 at 72 h was over 100 µM. This compound registered a CC50 at 144 h in data set [20] of 80.7 µM.
